Measured values from the kinase profiling compilation of Christmann-Franck et al. (2016).
One block for each molecule: values may come before it.

What was measured:
Assay in all cases: radiometric filter-binding kinase assay, Kinase HotSpot
Settings in all cases: compound 0.5 µM; ATP 10 µM
AKT2 (human) = AKT2 (human) (UniProt P31751)
BMX (human) = BMX (human) (UniProt P51813)
BRSK1 (human) = BRSK1 (human) (UniProt Q8TDC3)
CAMK2D (human) = CAMK2D (human) (UniProt Q13557)
CDK1 CCNB1 (human) = CDK1 CCNB1 (human) (UniProt P06493+P14635)
CDK5 CDK5R1 p25 (human) = CDK5 CDK5R1 p25 (human) (UniProt Q00535+Q15078)
CLK4 (human) = CLK4 (human) (UniProt Q9HAZ1)
CSNK1D (human) = CSNK1D (human) (UniProt P48730)
DAPK2 (human) = DAPK2 (human) (UniProt Q9UIK4)
Chain of DAPK2 (human) (Q9UIK4 whole entry, looked up): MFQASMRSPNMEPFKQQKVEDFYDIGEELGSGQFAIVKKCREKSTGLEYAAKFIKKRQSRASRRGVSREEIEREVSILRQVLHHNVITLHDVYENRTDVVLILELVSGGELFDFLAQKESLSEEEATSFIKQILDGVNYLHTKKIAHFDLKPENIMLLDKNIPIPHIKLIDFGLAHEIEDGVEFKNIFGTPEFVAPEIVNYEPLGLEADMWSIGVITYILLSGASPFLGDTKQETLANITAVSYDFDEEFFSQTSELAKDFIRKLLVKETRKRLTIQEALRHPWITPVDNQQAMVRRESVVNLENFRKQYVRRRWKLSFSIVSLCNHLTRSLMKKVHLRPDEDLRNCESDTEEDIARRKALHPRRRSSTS

DSTYK (human) = DSTYK (human) (UniProt Q6XUX3)
Chain of DSTYK (human) (Q6XUX3 whole entry, looked up): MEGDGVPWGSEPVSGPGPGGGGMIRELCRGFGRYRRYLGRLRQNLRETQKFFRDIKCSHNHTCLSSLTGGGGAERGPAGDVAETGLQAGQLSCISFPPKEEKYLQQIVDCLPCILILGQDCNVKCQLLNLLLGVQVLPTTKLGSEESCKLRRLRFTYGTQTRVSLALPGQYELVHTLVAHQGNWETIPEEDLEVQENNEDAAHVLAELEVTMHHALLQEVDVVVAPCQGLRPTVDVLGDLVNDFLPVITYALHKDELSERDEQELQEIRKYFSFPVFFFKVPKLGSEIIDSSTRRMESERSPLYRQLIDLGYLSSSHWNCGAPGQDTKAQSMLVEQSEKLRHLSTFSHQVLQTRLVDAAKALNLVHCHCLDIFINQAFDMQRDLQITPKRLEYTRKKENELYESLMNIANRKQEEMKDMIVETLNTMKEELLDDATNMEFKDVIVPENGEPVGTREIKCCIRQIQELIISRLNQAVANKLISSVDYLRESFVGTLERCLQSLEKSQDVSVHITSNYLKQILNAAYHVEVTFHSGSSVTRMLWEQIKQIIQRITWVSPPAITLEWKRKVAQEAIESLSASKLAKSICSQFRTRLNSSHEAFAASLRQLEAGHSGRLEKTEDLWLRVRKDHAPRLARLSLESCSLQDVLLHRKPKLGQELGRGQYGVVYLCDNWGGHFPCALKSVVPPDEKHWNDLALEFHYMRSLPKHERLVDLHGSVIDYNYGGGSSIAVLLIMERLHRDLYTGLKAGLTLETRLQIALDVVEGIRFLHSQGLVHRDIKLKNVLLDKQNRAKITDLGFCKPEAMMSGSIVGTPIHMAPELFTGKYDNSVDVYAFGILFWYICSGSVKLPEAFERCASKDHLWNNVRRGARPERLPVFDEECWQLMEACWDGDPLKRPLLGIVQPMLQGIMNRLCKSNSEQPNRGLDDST

EPHA4 (human) = EPHA4 (human) (UniProt P54764)
EPHB1 (human) = EPHB1 (human) (UniProt P54762)
Chain of EPHB1 (human) (P54762 whole entry, looked up): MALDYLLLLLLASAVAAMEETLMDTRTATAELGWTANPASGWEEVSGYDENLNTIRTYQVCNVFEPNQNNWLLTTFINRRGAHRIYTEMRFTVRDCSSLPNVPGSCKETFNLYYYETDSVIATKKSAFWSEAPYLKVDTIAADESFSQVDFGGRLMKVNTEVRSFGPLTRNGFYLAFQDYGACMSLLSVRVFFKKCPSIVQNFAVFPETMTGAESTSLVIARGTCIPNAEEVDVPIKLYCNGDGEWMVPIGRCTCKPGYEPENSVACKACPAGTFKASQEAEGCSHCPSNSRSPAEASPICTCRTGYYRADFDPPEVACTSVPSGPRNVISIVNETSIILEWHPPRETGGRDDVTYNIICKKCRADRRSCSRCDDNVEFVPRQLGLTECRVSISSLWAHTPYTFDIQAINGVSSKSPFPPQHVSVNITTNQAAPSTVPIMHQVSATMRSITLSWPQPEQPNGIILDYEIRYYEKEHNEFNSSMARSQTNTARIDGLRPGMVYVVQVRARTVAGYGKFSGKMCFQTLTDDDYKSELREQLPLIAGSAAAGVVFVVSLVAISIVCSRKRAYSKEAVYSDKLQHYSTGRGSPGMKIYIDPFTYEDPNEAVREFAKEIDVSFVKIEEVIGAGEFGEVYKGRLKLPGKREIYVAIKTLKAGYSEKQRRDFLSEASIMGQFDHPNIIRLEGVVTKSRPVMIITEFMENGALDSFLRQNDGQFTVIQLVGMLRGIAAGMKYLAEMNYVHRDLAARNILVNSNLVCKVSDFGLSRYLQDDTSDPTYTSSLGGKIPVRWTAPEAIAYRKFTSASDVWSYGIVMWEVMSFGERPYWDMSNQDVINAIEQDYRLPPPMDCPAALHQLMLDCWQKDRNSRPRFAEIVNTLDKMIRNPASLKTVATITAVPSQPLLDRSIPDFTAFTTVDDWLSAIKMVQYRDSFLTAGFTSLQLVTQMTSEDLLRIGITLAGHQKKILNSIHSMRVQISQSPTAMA

EPHB4 (human) = EPHB4 (human) (UniProt P54760)
GRK7 (human) = GRK7 (human) (UniProt Q8WTQ7)
GSK3A (human) = GSK3A (human) (UniProt P49840)
INSR (human) = INSR (human) (UniProt P06213)
LIMK1 (human) = LIMK1 (human) (UniProt P53667)
LRRK2 (human) = LRRK2 (human) (UniProt Q5S007)
MAP2K2 (human) = MAP2K2 (human) (UniProt P36507)
MAP3K8 (human) = MAP3K8 (human) (UniProt P41279)
MST4 (human) = MST4 (human) (UniProt Q9P289)
NEK11 (human) = NEK11 (human) (UniProt Q8NG66)
NEK4 (human) = NEK4 (human) (UniProt P51957)
NTRK1 (human) = NTRK1 (human) (UniProt P04629)
Chain of NTRK1 (human) (P04629 whole entry, looked up): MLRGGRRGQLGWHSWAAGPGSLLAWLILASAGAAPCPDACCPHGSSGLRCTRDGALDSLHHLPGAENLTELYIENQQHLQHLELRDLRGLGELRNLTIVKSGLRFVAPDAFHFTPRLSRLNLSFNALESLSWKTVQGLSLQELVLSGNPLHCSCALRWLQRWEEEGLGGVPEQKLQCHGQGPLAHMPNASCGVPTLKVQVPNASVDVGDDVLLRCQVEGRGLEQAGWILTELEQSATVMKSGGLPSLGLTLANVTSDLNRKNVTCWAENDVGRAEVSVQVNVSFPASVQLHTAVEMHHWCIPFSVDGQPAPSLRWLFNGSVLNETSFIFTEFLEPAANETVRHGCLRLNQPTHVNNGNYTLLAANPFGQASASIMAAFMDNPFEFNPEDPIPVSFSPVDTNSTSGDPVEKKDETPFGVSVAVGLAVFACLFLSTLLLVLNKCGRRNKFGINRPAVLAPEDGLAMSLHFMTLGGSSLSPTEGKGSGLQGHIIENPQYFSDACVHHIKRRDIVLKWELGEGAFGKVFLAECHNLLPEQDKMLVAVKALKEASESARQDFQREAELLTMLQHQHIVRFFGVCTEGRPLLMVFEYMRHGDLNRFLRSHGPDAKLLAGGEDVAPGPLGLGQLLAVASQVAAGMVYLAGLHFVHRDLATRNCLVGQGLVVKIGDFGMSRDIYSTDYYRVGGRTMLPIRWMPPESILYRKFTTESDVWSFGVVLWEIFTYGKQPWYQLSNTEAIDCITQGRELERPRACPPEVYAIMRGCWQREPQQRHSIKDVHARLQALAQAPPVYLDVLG

NUAK2 (human) = NUAK2 (human) (UniProt Q9H093)
PAK1 (human) = PAK1 (human) (UniProt Q13153)
PDGFRB (human) = PDGFRB (human) (UniProt P09619)
PRKCG (human) = PRKCG (human) (UniProt P05129)
PRKCI (human) = PRKCI (human) (UniProt P41743)
PRKCZ (human) = PRKCZ (human) (UniProt Q05513)
PTK2 (human) = PTK2 (human) (UniProt Q05397)
PTK2B (human) = PTK2B (human) (UniProt Q14289)
PTK6 (human) = PTK6 (human) (UniProt Q13882)
RPS6KA2 KD1 KD2 (human) = RPS6KA2 KD1 KD2 (human) (UniProt Q15349)
SGK2 (human) = SGK2 (human) (UniProt Q9HBY8)
SRC (human) = SRC (human) (UniProt P12931)
SRPK2 (human) = SRPK2 (human) (UniProt P78362)
STK10 (human) = STK10 (human) (UniProt O94804)
TAOK3 (human) = TAOK3 (human) (UniProt Q9H2K8)
TEC (human) = TEC (human) (UniProt P42680)
ULK2 (human) = ULK2 (human) (UniProt Q8IYT8)
ZAP70 (human) = ZAP70 (human) (UniProt P43403)
Chain of ZAP70 (human) (P43403 whole entry, looked up): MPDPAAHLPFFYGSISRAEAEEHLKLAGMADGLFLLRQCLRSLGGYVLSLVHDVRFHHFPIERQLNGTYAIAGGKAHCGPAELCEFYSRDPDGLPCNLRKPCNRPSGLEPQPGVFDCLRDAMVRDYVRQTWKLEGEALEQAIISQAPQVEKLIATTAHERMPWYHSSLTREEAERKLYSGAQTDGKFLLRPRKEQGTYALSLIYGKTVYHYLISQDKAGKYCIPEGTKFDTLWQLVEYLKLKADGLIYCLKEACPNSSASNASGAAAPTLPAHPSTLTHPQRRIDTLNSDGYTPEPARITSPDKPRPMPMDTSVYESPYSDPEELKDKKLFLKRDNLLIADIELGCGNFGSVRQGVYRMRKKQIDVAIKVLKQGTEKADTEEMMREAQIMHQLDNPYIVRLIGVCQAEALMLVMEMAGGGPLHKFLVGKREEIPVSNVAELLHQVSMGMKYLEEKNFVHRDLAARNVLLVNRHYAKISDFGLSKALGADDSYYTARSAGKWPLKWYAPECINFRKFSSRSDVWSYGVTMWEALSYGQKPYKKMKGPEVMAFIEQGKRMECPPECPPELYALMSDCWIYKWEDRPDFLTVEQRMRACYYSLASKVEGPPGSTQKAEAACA

Chain of BMX (human) (P51813 whole entry, looked up): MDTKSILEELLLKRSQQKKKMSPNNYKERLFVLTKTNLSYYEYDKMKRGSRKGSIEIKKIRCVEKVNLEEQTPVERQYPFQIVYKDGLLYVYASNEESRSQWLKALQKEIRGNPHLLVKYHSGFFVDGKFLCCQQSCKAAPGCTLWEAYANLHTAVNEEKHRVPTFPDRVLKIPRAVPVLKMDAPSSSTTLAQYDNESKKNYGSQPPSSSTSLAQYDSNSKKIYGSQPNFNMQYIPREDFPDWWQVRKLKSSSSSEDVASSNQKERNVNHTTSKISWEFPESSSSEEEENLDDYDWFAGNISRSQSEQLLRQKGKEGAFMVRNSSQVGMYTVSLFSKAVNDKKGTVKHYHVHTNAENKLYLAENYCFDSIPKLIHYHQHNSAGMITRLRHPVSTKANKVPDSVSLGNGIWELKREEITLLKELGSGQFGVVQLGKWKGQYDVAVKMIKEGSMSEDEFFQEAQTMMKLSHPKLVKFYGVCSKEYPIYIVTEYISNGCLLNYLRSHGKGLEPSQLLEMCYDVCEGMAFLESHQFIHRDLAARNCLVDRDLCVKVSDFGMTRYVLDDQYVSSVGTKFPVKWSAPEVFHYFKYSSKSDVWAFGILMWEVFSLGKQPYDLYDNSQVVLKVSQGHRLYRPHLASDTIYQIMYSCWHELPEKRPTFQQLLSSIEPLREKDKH
Chain of AKT2 (human) (P31751 whole entry, looked up): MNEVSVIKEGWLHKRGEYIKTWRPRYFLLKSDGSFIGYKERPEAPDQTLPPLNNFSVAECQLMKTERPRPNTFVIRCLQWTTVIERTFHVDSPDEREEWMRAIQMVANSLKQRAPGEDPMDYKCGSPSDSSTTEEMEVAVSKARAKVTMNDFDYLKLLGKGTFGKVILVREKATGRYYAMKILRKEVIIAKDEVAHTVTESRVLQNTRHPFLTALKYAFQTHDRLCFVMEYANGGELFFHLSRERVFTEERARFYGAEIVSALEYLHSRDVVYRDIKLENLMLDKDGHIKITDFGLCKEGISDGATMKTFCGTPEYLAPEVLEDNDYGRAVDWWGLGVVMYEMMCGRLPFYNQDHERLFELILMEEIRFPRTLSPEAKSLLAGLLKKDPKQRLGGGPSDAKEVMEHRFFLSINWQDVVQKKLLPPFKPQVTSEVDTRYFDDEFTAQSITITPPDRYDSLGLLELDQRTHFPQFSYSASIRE

residual activity (AKT2 (human)): 92%
residual activity (BMX (human)): 80.1%
residual activity (BRSK1 (human)): 23.4%
residual activity (CAMK2D (human)): 60.4%
residual activity (CDK1 CCNB1 (human)): 68.7%
residual activity (CDK5 CDK5R1 p25 (human)): 28.7%
residual activity (CLK4 (human)): 59.2%
residual activity (CSNK1D (human)): 39.3%
residual activity (DAPK2 (human)): 110%
residual activity (DSTYK (human)): 108%
residual activity (EPHA4 (human)): 89.4%
residual activity (EPHB1 (human)): 86.2%
residual activity (EPHB4 (human)): 85.9%
residual activity (GRK7 (human)): 84.4%
residual activity (GSK3A (human)): 16.5%
residual activity (INSR (human)): 66.8%
residual activity (LIMK1 (human)): 65.9%
residual activity (LRRK2 (human)): 91.6%
residual activity (MAP2K2 (human)): 100%
residual activity (MAP3K8 (human)): 106%
residual activity (MST4 (human)): 75.3%
residual activity (NEK11 (human)): 98.2%
residual activity (NEK4 (human)): 95%
residual activity (NTRK1 (human)): 12.4%
residual activity (NUAK2 (human)): 72.5%
residual activity (PAK1 (human)): 86.1%
residual activity (PDGFRB (human)): 72.6%
residual activity (PRKCG (human)): 96.7%
residual activity (PRKCI (human)): 92.2%
residual activity (PRKCZ (human)): 95.2%
residual activity (PTK2 (human)): 65.8%
residual activity (PTK2B (human)): 65.8%
residual activity (PTK6 (human)): 97.2%
residual activity (RPS6KA2 KD1 KD2 (human)): 42.6%
residual activity (SGK2 (human)): 91.8%
residual activity (SRC (human)): 65.1%
residual activity (SRPK2 (human)): 91.3%
residual activity (STK10 (human)): 74%
residual activity (TAOK3 (human)): 62.6%
residual activity (TEC (human)): 105%
residual activity (ULK2 (human)): 103%
residual activity (ZAP70 (human)): 95.6%
Compound: O=C1Nc2ccccc2/C1=C1\Nc2ccccc2\C1=N/O

residual activity (AKT2 (human)): 90.1%
residual activity (BMX (human)): 40.2%
residual activity (BRSK1 (human)): 39.5%
residual activity (CAMK2D (human)): 29.1%
residual activity (CDK1 CCNB1 (human)): 33.4%
residual activity (CDK5 CDK5R1 p25 (human)): 16.4%
residual activity (CLK4 (human)): 6.19%
residual activity (CSNK1D (human)): 52.9%
residual activity (DAPK2 (human)): 104%
residual activity (DSTYK (human)): 104%
residual activity (EPHA4 (human)): 77.9%
residual activity (EPHB1 (human)): 65.9%
residual activity (EPHB4 (human)): 72.2%
residual activity (GRK7 (human)): 70.3%
residual activity (GSK3A (human)): 7.31%
residual activity (INSR (human)): 44.9%
residual activity (LIMK1 (human)): 39.5%
residual activity (LRRK2 (human)): 81.2%
residual activity (MAP2K2 (human)): 86.5%
residual activity (MAP3K8 (human)): 123%
residual activity (MST4 (human)): 73.1%
residual activity (NEK11 (human)): 92.3%
residual activity (NEK4 (human)): 83.9%
residual activity (NTRK1 (human)): 3.84%
residual activity (NUAK2 (human)): 55.1%
residual activity (PAK1 (human)): 71.3%
residual activity (PDGFRB (human)): 42.8%
residual activity (PRKCG (human)): 92%
residual activity (PRKCI (human)): 100%
residual activity (PRKCZ (human)): 98.5%
residual activity (PTK2 (human)): 35%
residual activity (PTK2B (human)): 30.5%
residual activity (PTK6 (human)): 73.3%
residual activity (RPS6KA2 KD1 KD2 (human)): 12.1%
residual activity (SGK2 (human)): 75.8%
residual activity (SRC (human)): 22.6%
residual activity (SRPK2 (human)): 86.5%
residual activity (STK10 (human)): 52.1%
residual activity (TAOK3 (human)): 55.4%
residual activity (TEC (human)): 101%
residual activity (ULK2 (human)): 102%
residual activity (ZAP70 (human)): 97.8%
Compound: O=C1Nc2ccccc2/C1=C1/Nc2ccccc2/C1=N\OCCC(O)CO (stereo not drawn)

Compound: O=C(O)/C=C/c1cc(Br)c(Br)c(Br)c1Br
residual activity (AKT2 (human)): 97.5%
residual activity (BMX (human)): 97%
residual activity (BRSK1 (human)): 80.5%
residual activity (CAMK2D (human)): 77.7%
residual activity (CDK1 CCNB1 (human)): 62.7%
residual activity (CDK5 CDK5R1 p25 (human)): 84.1%
residual activity (CLK4 (human)): 45.4%
residual activity (CSNK1D (human)): 59.1%
residual activity (DAPK2 (human)): 104%
residual activity (DSTYK (human)): 98.2%
residual activity (EPHA4 (human)): 88.8%
residual activity (EPHB1 (human)): 95.2%
residual activity (EPHB4 (human)): 81.2%
residual activity (GRK7 (human)): 105%
residual activity (GSK3A (human)): 91.5%
residual activity (INSR (human)): 98.6%
residual activity (LIMK1 (human)): 101%
residual activity (LRRK2 (human)): 87.6%
residual activity (MAP2K2 (human)): 103%
residual activity (MAP3K8 (human)): 83%
residual activity (MST4 (human)): 88.7%
residual activity (NEK11 (human)): 101%
residual activity (NEK4 (human)): 54.6%
residual activity (NTRK1 (human)): 91.1%
residual activity (NUAK2 (human)): 98.9%
residual activity (PAK1 (human)): 105%
residual activity (PDGFRB (human)): 96%
residual activity (PRKCG (human)): 89.4%
residual activity (PRKCI (human)): 97.3%
residual activity (PRKCZ (human)): 89.2%
residual activity (PTK2 (human)): 94%
residual activity (PTK2B (human)): 93.3%
residual activity (PTK6 (human)): 95%
residual activity (RPS6KA2 KD1 KD2 (human)): 75.8%
residual activity (SGK2 (human)): 59.7%
residual activity (SRC (human)): 88.8%
residual activity (SRPK2 (human)): 62%
residual activity (STK10 (human)): 85.8%
residual activity (TAOK3 (human)): 85.3%
residual activity (TEC (human)): 107%
residual activity (ULK2 (human)): 80.3%
residual activity (ZAP70 (human)): 98.5%

Compound: CN(C)C[C@H]1CCn2c(c(C3=C(c4cn(C)c5ccccc45)C(=O)NC3=O)c3ccccc32)C1
residual activity (AKT2 (human)): 92.6%
residual activity (BMX (human)): 91.7%
residual activity (BRSK1 (human)): 101%
residual activity (CAMK2D (human)): 82.4%
residual activity (CDK1 CCNB1 (human)): 53.7%
residual activity (CDK5 CDK5R1 p25 (human)): 84.7%
residual activity (CLK4 (human)): 111%
residual activity (CSNK1D (human)): 101%
residual activity (DAPK2 (human)): 90.4%
residual activity (DSTYK (human)): 89.4%
residual activity (EPHA4 (human)): 103%
residual activity (EPHB1 (human)): 106%
residual activity (EPHB4 (human)): 90.9%
residual activity (GRK7 (human)): 40%
residual activity (GSK3A (human)): 14.2%
residual activity (INSR (human)): 88%
residual activity (LIMK1 (human)): 89.4%
residual activity (LRRK2 (human)): 93.1%
residual activity (MAP2K2 (human)): 101%
residual activity (MAP3K8 (human)): 95%
residual activity (MST4 (human)): 78%
residual activity (NEK11 (human)): 74.1%
residual activity (NEK4 (human)): 96.7%
residual activity (NTRK1 (human)): 108%
residual activity (NUAK2 (human)): 121%
residual activity (PAK1 (human)): 99.8%
residual activity (PDGFRB (human)): 102%
residual activity (PRKCG (human)): 6.93%
residual activity (PRKCI (human)): 36.2%
residual activity (PRKCZ (human)): 31%
residual activity (PTK2 (human)): 95.9%
residual activity (PTK2B (human)): 95.5%
residual activity (PTK6 (human)): 90.4%
residual activity (RPS6KA2 KD1 KD2 (human)): 3.57%
residual activity (SGK2 (human)): 71.7%
residual activity (SRC (human)): 101%
residual activity (SRPK2 (human)): 91.5%
residual activity (STK10 (human)): 26.6%
residual activity (TAOK3 (human)): 96.4%
residual activity (TEC (human)): 108%
residual activity (ULK2 (human)): 105%
residual activity (ZAP70 (human)): 105%
